Key:
Plutella xylostella = test: Insecticidal test on Plutella xylostella; type: in vivo; settings: 144 h, Chinese cabbage seedlings with laid eggs dipped about 30 seconds, 6 days after dip treatment, 25° C., read-out: insecticidal efficacy (corrected mortality rate), activity level
Protocol: Insecticidal Test on Plutella xylostella
Adults of P. xylostella were released onto Chinese cabbage seedlings and allowed to lay eggs thereon. […] After air-dried, the seedlings were kept in a thermostatic chamber at 25° C. […] This test was conducted in triplicate using 10 adults of P. xylostella per plot. Corrected mortality rate (%)=100×(Number of hatched larvae in a non-treatment plot−Number of hatched larvae in a treatment plot)/Number of hatched larvae in a non-treatment plot [Math. 3]

Myzus persicae = test: Test for control efficacy on Myzus persicae; type: in vivo; settings: 144 h, foliar application to potted Chinese cabbage, 6 days after application, read-out: control efficacy (control rate), activity level
Text: Test for Control Efficacy on Myzus persicae Chinese cabbage plants were planted in plastic pots (diameter: 8 cm, height: 8 cm), Green peach aphids (M. persicae) were propagated on the plants, and the number of surviving Green peach aphids in each pot was counted. […] The agrochemical dispersions were applied to the foliage of the potted Chinese cabbage plants. After the plants were air-dried, the pots were kept in a greenhouse. At 6 days after the foliar application, the number of surviving Green peach aphids on the Chinese cabbage plant in each pot was counted, the control rate was calculated according to the formula shown below, and the control efficacy was evaluated according to the criteria shown below. Control rate=100−{(T×Ca)/(Ta×C)}×100 [Math. 1] Ta: the number of survivors before the foliar application in a treatment plot T: the number of survivors after the foliar application in a treatment plot Ca: the number of survivors before the foliar application in a non-treatment plot C: the number of survivors after the foliar application in a non-treatment plot Criteria A: the control rate is 100%. […] C: the control rate is 80 to 89%.

Laodelphax striatellus = test: Insecticidal test on Laodelphax striatellus; type: in vivo; settings: 192 h, rice seedlings dipped 30 seconds, 3rd-instar larvae, 8 days after inoculation, read-out: insecticidal efficacy (corrected mortality rate), activity level
Protocol: Insecticidal Test on Laodelphax striatellus
Rice plant seedlings (variety: Nihonbare) were dipped in the agrochemical dispersions for 30 seconds. After air-dried, each seedling was put into a separate glass test tube and inoculated with ten 3rd-instar larvae of L. striatellus, and then the glass test tubes were capped with cotton plugs. At 8 days after the inoculation, the numbers of surviving larvae and dead larvae were counted, the corrected mortality rate was calculated according to the formula shown below, and the insecticidal efficacy was evaluated according to the criteria shown below. Corrected mortality rate (%)=100×(Survival rate in a non-treatment plot−Survival rate in a treatment plot)/Survival rate in a non-treatment plot [Math. 2] Corrected Mortality Rate A: the corrected mortality rate is 100%.

Haemonchus contortus = test: Parasiticidal test on Haemonchus contortus (larval motility); settings: 1st-instar larvae, 96-well plates, 27° C., 96 hours, read-out: percent inhibition in motility
Text: Parasiticidal Test on Haemonchus contortus
Eggs of H. contortus were collected from feces of a goat and hatched in water. […] Percent inhibition in motility (%)=100×(Average motility in negative control wells−Average motility in treated wells)/Average motility in negative control wells [Math. 5]

Rhipicephalus sanguineus = test: Parasiticidal test on Rhipicephalus sanguineus; type: in vivo; settings: treated filter paper, nymphs, 27° C., 48 hours after treatment, read-out: corrected mortality rate
Protocol: Parasiticidal Test on Rhipicephalus sanguineus
The diluted formulations were applied dropwise onto filter paper pieces placed in separate vials. The filter paper pieces were dried. Ten nymphs of R. sanguineus were placed into each vial and maintained at 27° C. with 80% humidity under a 12L12D light-dark cycle (L: light time, D: dark time). At 48 hours after agrochemical treatment, the numbers of surviving and dead nymphs were counted, and the corrected mortality rate was calculated according to the formula of Math. 4.

Ctenocephalides felis = test: Parasiticidal test on Ctenocephalides felis; type: in vivo; settings: 50 ppm in bovine blood, adults, artificial feeding system 35° C., 24 hours after treatment, read-out: corrected mortality rate
Protocol: Parasiticidal Test on Ctenocephalides felis
Newly-emerged adults of C. felis were placed into test cages (10 adults per test cage), and the test cages were maintained at 35° C. in an artificial feeding system. At 24 hours after agrochemical treatment, the numbers of surviving and dead adults were counted, and the corrected mortality rate was calculated according to the formula shown below. Corrected mortality rate (%)=100×(Survival rate in a negative control group−Survival rate in a treatment group)/Survival rate in a negative control group [Math.

Compound	mortality at 500 ppm (Plutella xylostella) [%]	pest or weed control at 500 ppm (Myzus persicae) [%]	mortality at 500 ppm (Laodelphax striatellus) [%]	inhibition at 100 ppm (Haemonchus contortus) [%]	mortality at 100 ppm (Rhipicephalus sanguineus) [%]	mortality at 50 ppm (Ctenocephalides felis) [%]
CCSc1cc(C2CC2)cnc1-c1nc2cc(SC(F)(F)F)ccc2n1C [Compound 1-1, 2-(3-ethylthio-5-cyclopropylpyridin-2-yl)-1-methyl-5-(trifluoromethylthio)benzimidazole]	100	100	100			
CC[S+]([O-])c1cc(C2CC2)cnc1-c1nc2cc(SC(F)(F)F)ccc2n1C (stereo not drawn) [Compound 1-2, 2-(3-ethylsulfinyl-5-cyclopropylpyridin-2-yl)-1-methyl-5-(trifluoromethylthio)benzimidazole]	100	100	100			
CCS(=O)(=O)c1cc(C2CC2)cnc1-c1nc2cc(SC(F)(F)F)ccc2n1C [Compound 1-3, 2-(3-ethylsulfonyl-5-cyclopropylpyridin-2-yl)-1-methyl-5-(trifluoromethylthio)benzimidazole]	100	100	100	≥ 50	≥ 90	≥ 90
CCS(=O)(=O)c1cc(C2CC2)cnc1-c1nc2cc([S+]([O-])C(F)(F)F)ccc2n1C (stereo not drawn) [Compound 1-4, 2-(3-ethylsulfonyl-5-cyclopropylpyridin-2-yl)-1-methyl-5-(trifluoromethylsulfinyl)benzimidazole]	100	100	100	≥ 50	≥ 90	≥ 90
CCS(=O)(=O)c1cc(C2CC2)cnc1-c1nc2cc(S(=O)(=O)C(F)(F)F)ccc2n1C [Compound 1-5, 2-(3-ethylsulfonyl-5-cyclopropylpyridin-2-yl)-1-methyl-5-(trifluoromethylsulfonyl)benzimidazole]	100	100	100			
CCSc1cc(C2(C#N)CC2)cnc1-c1nc2cc(SC(F)(F)F)ccc2n1C [Compound 1-6]	100	100	100			
CCS(=O)(=O)c1cc(C2CC2)cnc1-c1nc2cc(OC(F)(F)F)ccc2n1C [Compound 1-27, 2-(5-cyclopropyl-3-ethylsulfonyl-pyridin-2-yl)-1-methyl-5-trifluoromethoxybenzimidazole]	100	100	100			
CCSc1cc(C2(C#N)CC2)cnc1-c1nc2cc(OC(F)(F)F)ccc2n1C [Compound 1-83, 2-(5-(1-cyanocyclopropyl)-3-ethylthiopyridin-2-yl)-1-methyl-5-trifluoromethoxybenzimidazole]	100	100	100			
CCS(=O)(=O)c1cc(C2(C#N)CC2)cnc1-c1nc2cc(OC(F)(F)F)ccc2n1C [Compound 1-85, 2-(5-(1-cyanocyclopropyl)-3-ethylsulfonyl-pyridin-2-yl)-1-m ethyl-5-trifluoromethoxybenzimidazole]	100	100	100			
